How the values were obtained:
Format in all cases: in vivo
Col3a1^G938D mice = assay: Survival drug trial in Col3a1^G938D/+ (vEDS) mice, Kaplan-Meier
Source text: All mice were maintained on a C57BL/6J background (#000664, The Jackson Laboratory). ET1^fl/fl f mice were obtained from RIKEN (RBRC06322). Tie2-Cre mice and Sm22-Cre mice were obtained from the Jackson Laboratory (#004128. #017491). All mice were genotyped according to published protocols.
Restriction enzymes were used to detect the presence or absence of the Col3a1 mutation as previously described. The G938D mutation leads to the gain of a BamHI cut site (R3136S, New England Biolabs). All mice found dead were assessed for cause of death by necropsy, noting in particular hemothorax and hemoperitoneum.
For drug trials in the Col3a1^G938D/+ mice, mice were initiated on medication at weaning and continued until 2 months of age. Cobimetinib (GDC-0973/RO551404, Active Biochem) was dissolved in drinking water and filtered to reach a final concentration of 0.02 g/L giving an estimated dose of 2 mg/kg/day. Ruboxistaurin (LY333531 HCl, Selleck Chemicals) was mixed with powdered food (LabDiet) to give a concentration of 0.1 mg/g giving an estimated dose of 8 mg/kg/day. […]
By design, each treatment trial included contemporaneous control (untreated) mice. […] All p-values calculated by log-rank comparisons (using Prism) are reported as unadjusted p-values, given the interdependence of many of the drug mechanisms. […]

p-ERK1/2 = assay: Western blot of p-ERK1/2 in proximal descending thoracic aorta of treated Col3a1^G938D mice; settings: normalized to β-actin, vs untreated
Description: (§1) Protein was extracted using an automatic bead homogenizer in conjunction with a Protein Extraction Kit (Full Moon Biosystems). All protein lysis buffers contained both PhosSTOP and cOmplete™, Mini, EDTA-free Protease Inhibitor Cocktail (Roche). Western blotting was performed using LI-COR buffer and species appropriate secondary antibodies conjugated to IR-dye700 or IRdye-800 (LI-COR Biosciences), according to the manufacturer's guidelines and analyzed using LI-COR Odyssey. The following primary antibodies were used: anti-β-Actin (8H10D10) (Cell Signaling Technology, 3700), anti-phospho ERK1/2 (Cell Signaling Technology, 4370), anti-PKCβ (phospho S660) (Abcam, 75837), anti-Endothelin-1 (TR.ET.48.5) (Thermo Fisher Scientific, MA3005), anti-Endothelin-1 (TR.ET.48.5) (Abcam, 2786).
(§2) pERK and pPKC amounts were normalized to j-actin as opposed to total ERK or total PKC for a variety of practical reasons. First, it is the amount of phosphorylated protein, and not the ratio of phosphorylated to unphosphorylated protein, that drives cellular responses. Second, we are unaware of any pathophysiologic context where the amount of unphosphorylated protein is limiting (i.e. always in excess). […]

p-PKC = assay: Western blot of p-PKC in proximal descending thoracic aorta of treated Col3a1^G938D mice; settings: normalized to β-actin, vs untreated
Description: as §1, §2

Endothelin-1 = assay: Immunofluorescence of Endothelin-1 in descending thoracic aorta of treated Col3a1^G938D/+ mice; settings: descending thoracic aorta of 8-week-old Col3a1^G938D/+ mice, treated from weaning; cobimetinib est. 2 mg/kg/day, ruboxistaurin est. 8 mg/kg/day
Description: Mice were euthanized by isoflurane inhalation and the left common iliac artery was transected to allow for drainage. PBS (pH 7.4) and PBS containing 4% paraformaldehyde (PFA) was flushed through the left ventricle. The heart and thoracic aorta were removed en bloc and fixed in 4% PFA overnight at 4° C. Aortas were submitted for paraffin fixation and longitudinal sections 5 micrometers thick were mounted on glass slides and stained with hematoxylin & eosin (HE), Verhoeff-van Giesen (VVG), Masson's Trichrome, or Picrosirius red (PSR). Slides were imaged at 20× and 40× magnification using a Nikon Eclipse E400 microscope. Collagen content was determined by polarized PSR intensity (31) and elastin breaks were counted by a researcher blinded to genotype and treatment arm using only VVG stained sections where elastin breaks were clearly visualized.
For immunofluorescence, slides were incubated in antigen retrieval solution for 1 minute in a pressure cooker. Sections were incubated with 1% BSA for one hour at room temperature. Primary antibodies were diluted at 1:200 in 1% BSA and incubated overnight at 4° C. Three consecutive washes were performed prior to incubation with anti-rabbit secondary antibodies conjugated to Alexa Fluor 488 (Invitrogen A-11039) or anti-mouse secondary antibodies conjugated to Alexa Fluor 594 (Invitrogen R37119) at 1:200 for 1 hour at room temperature. […]

Row | SMILES | effect on survival (in words) (Col3a1^G938D mice; Col3a1^G938D/+ mice vs untreated, Log-Rank (Mantel-Cox)) | mice surviving to the end of the trial (Col3a1^G938D mice; vEDS (Col3a1^G938D) mice, drug from weaning (P21), followed 45 days, in food, estimated 100 mg/kg/day, untreated 46%) | p-ERK1/2 level in aorta (in words) (p-ERK1/2) | p-PKC level in aorta (in words) (p-PKC) | ET1 protein levels in aorta (in words) (Endothelin-1)
1 | COc1ccccc1Oc1c(NS(=O)(=O)c2ccc(C(C)(C)C)cc2)nc(-c2ncccn2)nc1OCCO [bosentan, Bosentan] | moderately but significantly improved survival | 70% | not p-ERK1/2 | marked downregulation | –
2 | O=C(c1ccc(F)c(F)c1Nc1ccc(I)cc1F)N1CC(O)([C@@H]2CCCCN2)C1 [cobimetinib, Cobimetinib] | – | – | – | – | attenuated
3 | CN(C)C[C@@H]1CCn2cc(c3ccccc32)C2=C(C(=O)NC2=O)c2cn(c3ccccc23)CCO1 [ruboxistaurin, Ruboxistaurin] | – | – | – | – | attenuated
